{"source": "patent US7659293B2", "about": "“α-Amino-N-hydroxy-acetamide derivatives” (Novartis AG, priority 2001, dated 2010)", "test_system": "BN472 rat mammary carcinoma", "experiment": "Spontaneous metastases model, BN472 rat mammary tumors transplanted orthotopically", "type": "in vivo", "settings": "4 weeks, vehicle control about 230", "method": "Tumor fragments of ca. 25 mm^3 are transplanted under the mammary fat pad of female Brown-Norwegian (BN) rats. A compound of formula I is suspended in 1% carboxymethyl cellulose (CMC) in sterile water. The formulations are administered orally at doses of either 30 mg/kg once per day or 15 mg/kg twice per day. Animals in the tumor-bearing control group and the non-tumor-bearing control group (healthy rats) receive vehicle only. Treatment starts after randomization and continues for 4 weeks. Lung metastases are determined after four weeks of treatment by counting the number of lesions visible on the surface of the lungs after fixation in Bouin's fixative. In this model the compounds of formula I at a dose of either 30 mg/kg once per day or 15 mg/kg twice per day produce reductions in the incidence and/or extent of metastases in lungs and regional lymph nodes. The reduction in the median number of lung metastases or weight of regional lymph nodes is between approximately 25% and 70%. For Example, for the compound of Example 3 the median number of lung foci is about 105 for both dosages compared to a median number of about 230 lung foci in the vehicle control group. Based on the increase in body weight and general health, the compounds appear to be well tolerated. […]", "data": [{"smiles": "O=C(CN(Cc1ccc(-n2nccn2)cc1)S(=O)(=O)c1ccc(OCC2CC2)cc1)NO", "note": "[Example 3, [(4-Cyclopropylmethoxy-benzenesulfonyl)-(4-[1,2,3]triazol-2-yl-benzyl)amino]-N-hydroxy-acetamide]", "values": [{"measurement": "median number of lung foci", "setting": "15 mg/kg twice per day orally", "value": "about 105"}, {"measurement": "median number of lung foci", "setting": "30 mg/kg once per day orally", "value": "about 105"}]}]}
